Results taken from patent US4859468A, “Compositions and method for decomposing adipose tissue” (Senju Pharmaceutical Co., Ltd., priority 1985, dated 1989).

Tested on: free fat cell
Test: Activity on the adrenaline's decomposing action on free fat cell (free fatty acid liberation with adrenaline)
Type: cell-based, male Wister rat
Settings: adrenaline 0.5 μg/ml alone
Experimental: Eight grams of fat tissue at epididymis of male Wister rat (body weight 150-200 g) was sliced and was added into 20 ml of a Krebs-Ringer phosphoric acid buffer solution (pH 7.4) (hereinafter referred to as KRP buffer solution) containing 20 mg of glucose, 4% of bovine serum albumin and 20 mg of collagenase. The mixture was incubated at 37° C. for 50 min, and after filtration with nylon mesh, was centrifuged at 500 rpm for 30 sec; then, any portion that was not the fat cell layer was sucked out. The fat cell layer was washed twice with the KRP buffer solution and then diluted to 20 ml by addition of the KRP buffer solution. To 0.25 ml of this suspension, 0.5 ml of KRP buffer solution containing 5% of bovine serum albumin and 0.1 ml of the liquids to be tested or KRP buffer solution as control were added; these mixtures were incubated at 37° C. for 2 hr and the freed fatty acids were assayed by Dole's method (V. P. Dole, J. Clin. Invest., 35, 150 (1956)).

For CNCC(O)c1ccc(O)c(O)c1 (stereo not shown) [adrenaline], the “action of adrenaline on free fat cell (in words)” value was “free fatty acid is freed”.
